The text below walks through data of PMC7365685 (ACS chemical biology, 2019).

Changes are numbered by the printed parent chain.

Test [1] concerns the target T1, dopamine D2 receptor (D2R; D2SR; SNAP-D2SR) (Homo sapiens, UniProt P14416). In words: [3H]spiperone competition binding.
Test [2] addresses T1, dopamine D2 receptor (D2R; D2SR; SNAP-D2SR). In words: inhibition of forskolin-stimulated cAMP. Type of test: cell-based. Conditions: functional affinity; receptor alkylation with phenoxybenzamine.
A further test addresses I183^ECL2A D2R (Homo sapiens, UniProt P14416, I183A). In words: biochemical.
The target in the next test is T2, C118^3.36A D2R (Homo sapiens, UniProt P14416, C118A).
T2 sequence (P14416 1-443 C118A): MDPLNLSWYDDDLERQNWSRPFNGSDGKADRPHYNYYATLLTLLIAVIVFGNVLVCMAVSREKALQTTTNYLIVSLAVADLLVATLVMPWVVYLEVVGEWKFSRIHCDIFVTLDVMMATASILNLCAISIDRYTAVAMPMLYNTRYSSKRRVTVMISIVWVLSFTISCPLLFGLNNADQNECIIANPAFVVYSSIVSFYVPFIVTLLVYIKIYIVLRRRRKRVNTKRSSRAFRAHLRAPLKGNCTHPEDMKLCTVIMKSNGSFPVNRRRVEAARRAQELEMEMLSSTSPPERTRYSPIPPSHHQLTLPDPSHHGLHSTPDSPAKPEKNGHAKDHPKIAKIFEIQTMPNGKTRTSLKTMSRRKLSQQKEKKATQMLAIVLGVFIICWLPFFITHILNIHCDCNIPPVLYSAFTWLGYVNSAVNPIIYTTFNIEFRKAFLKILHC
Nature of the test: biochemical.

In a further test the target is T3, I122^3.40A D2R (Homo sapiens, UniProt P14416, I122A).
T3 sequence (P14416 1-443 I122A): T2 sequence (P14416 1-443 C118A) with A118C, I122A
In words: biochemical. Also noted: species or system FlpIn CHO.

The target in the next test is T4, V115^3.33A D2R (Homo sapiens, UniProt P14416, V115A).
T4 sequence (P14416 1-443 V115A): T2 sequence (P14416 1-443 C118A) with V115A, A118C
In words: biochemical.

In the next test the target is N186^ECL2A D2R (Homo sapiens, UniProt P14416, N186A). In words: biochemical. Also noted: species or system FlpIn CHO.
Sequence of N186^ECL2A D2R (P14416 whole entry N186A): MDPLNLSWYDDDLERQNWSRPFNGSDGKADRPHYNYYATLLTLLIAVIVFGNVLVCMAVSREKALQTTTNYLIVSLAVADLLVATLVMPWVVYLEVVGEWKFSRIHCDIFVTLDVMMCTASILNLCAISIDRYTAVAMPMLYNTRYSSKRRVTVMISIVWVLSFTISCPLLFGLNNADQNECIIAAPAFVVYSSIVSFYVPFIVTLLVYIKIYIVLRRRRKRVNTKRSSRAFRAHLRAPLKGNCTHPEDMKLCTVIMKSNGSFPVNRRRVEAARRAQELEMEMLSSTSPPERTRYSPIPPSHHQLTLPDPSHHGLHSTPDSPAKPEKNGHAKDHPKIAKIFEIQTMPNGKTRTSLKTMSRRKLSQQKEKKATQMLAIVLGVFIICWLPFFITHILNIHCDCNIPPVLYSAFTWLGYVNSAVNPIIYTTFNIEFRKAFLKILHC
The target of test [3] is dopamine D2 receptor (D2R; D2SR; SNAP-D2SR) (Homo sapiens, UniProt P14416, F110A). Nature of the test: biochemical.
Sequence of dopamine D2 receptor (D2R; D2SR; SNAP-D2SR) (Homo sapiens, UniProt P14416, F110A) (P14416 1-414 isoform P14416-2 F110A): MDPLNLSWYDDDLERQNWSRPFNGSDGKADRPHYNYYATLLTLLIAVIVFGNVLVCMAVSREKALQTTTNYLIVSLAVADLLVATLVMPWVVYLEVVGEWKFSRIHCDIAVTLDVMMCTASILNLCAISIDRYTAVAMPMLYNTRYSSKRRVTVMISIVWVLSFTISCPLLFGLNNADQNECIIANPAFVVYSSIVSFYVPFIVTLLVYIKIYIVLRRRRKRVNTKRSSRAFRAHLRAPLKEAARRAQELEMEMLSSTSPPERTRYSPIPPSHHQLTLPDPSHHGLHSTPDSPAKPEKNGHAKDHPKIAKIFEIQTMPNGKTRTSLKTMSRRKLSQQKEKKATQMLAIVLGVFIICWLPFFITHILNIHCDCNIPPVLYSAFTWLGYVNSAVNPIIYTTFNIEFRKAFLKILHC
For test [4], the target named is dopamine D2 receptor (D2R; D2SR; SNAP-D2SR) (Homo sapiens, UniProt P14416, F202A). In words: biochemical.
Sequence of dopamine D2 receptor (D2R; D2SR; SNAP-D2SR) (Homo sapiens, UniProt P14416, F202A) (P14416 1-414 isoform P14416-2 F202A): as the sequence (P14416 1-414 isoform P14416-2 F110A) above, with A110F, F202A counted along it
The target of another test is L174^ECL2A D2R (Homo sapiens, UniProt P14416, L174A). Nature of the test: biochemical. Also noted: species or system FlpIn CHO.
Sequence of L174^ECL2A D2R (P14416 whole entry L174A): as the sequence (P14416 whole entry N186A) above, with L174A, A186N counted along it
In test [5] the target is dopamine D2 receptor (D2R; D2SR; SNAP-D2SR) (Homo sapiens, UniProt P14416, S193A). Nature of the test: biochemical.
Sequence of dopamine D2 receptor (D2R; D2SR; SNAP-D2SR) (Homo sapiens, UniProt P14416, S193A) (P14416 1-414 isoform P14416-2 S193A): as the sequence (P14416 1-414 isoform P14416-2 F110A) above, with A110F, S193A counted along it
The target in another test is T5, T119^3.37A D2R (Homo sapiens, UniProt P14416, T119A).
T5 sequence (P14416 1-443 T119A): T2 sequence (P14416 1-443 C118A) with A118C, T119A
In words: biochemical.

For the next test, the target named is S197^5.46A D2R (Homo sapiens, UniProt P14416, S197A). Nature of the test: biochemical.
Sequence of S197^5.46A D2R (P14416 whole entry S197A): as the sequence (P14416 whole entry N186A) above, with A186N, S197A counted along it
A further test addresses E181^ECL2A D2R (Homo sapiens, UniProt P14416, E181A). In words: biochemical.
The target of test [6] is T1, dopamine D2 receptor (D2R; D2SR; SNAP-D2SR). In words: inhibition of forskolin-stimulated cAMP. In kind it is cell-based. To be noted: functional affinity (dissociation constant of coupled receptor); partial agonist.

T1 sequence (P14416 1-414 isoform P14416-2): as the sequence (P14416 1-414 isoform P14416-2 F110A) above, with A110F counted along it
Sequence of I183^ECL2A D2R (P14416 whole entry I183A): as the sequence (P14416 whole entry N186A) above, with I183A, A186N counted along it
Sequence of E181^ECL2A D2R (P14416 whole entry E181A): as the sequence (P14416 whole entry N186A) above, with E181A, A186N counted along it

The compound `CCCN1CCN(c2cccc(Cl)c2Cl)CC1` [compound 2] showed a Ki in test [1] of 0.0182 µM.

In [1], `CCCCN1CCN(c2cccc(Cl)c2Cl)CC1` [compound 3] showed a Ki of 0.00501 µM.

Regarding `NCCc1ccc(O)c(O)c1` [dopamine], the pKA result in test [2] was “determine the functional affinity and efficacy of dopamine and ropinirole”.

In [1], `CCCCN1CCN(c2ccccc2OC)CC1` [compound 12] had a Ki of 0.0933 µM. That is a double-digit nanomolar value.

Take `CCCN(CCC)CCc1cccc2c1CC(=O)N2` [ropinirole]: the Ki at I183^ECL2A D2R is 3.16 µM; at C118^3.36A D2R, 3.72 µM; on I122^3.40A D2R, 7.76 µM; in test [1] it was 6.61 µM; at V115^3.33A D2R, 18.6 µM; on N186^ECL2A D2R, 9.77 µM. Besides, the Ki in test [3] was 42.7 µM; in test [4], 12.3 µM; at L174^ECL2A D2R it was 2.24 µM; in [5], 100 µM; on T119^3.37A D2R it was 4.27 µM; at S197^5.46A D2R, 8.51 µM. At E181^ECL2A D2R, this compound gave a Ki of 3.02 µM. In addition, in [2], the pKA entry was “determine the functional affinity and efficacy of dopamine and ropinirole”.

For the compound `COCCCCN1CCN(c2cccc(Cl)c2Cl)CC1` [compound 4], in test [1], the Ki was 0.02 µM. This lies in the double-digit nanomolar range.

`Clc1cccc(N2CCNCC2)c1Cl` [compound 1, DCPP] gave an inhibition constant (Ki) in test [1] of 0.575 µM. The “cAMP (BRET Biosensor) / pKA” value in test [6] is 6.49 ± 0.18.
